Assay results reported in patent US10363239B2, “Method for inhibiting growth of cancer cells” (Pain Therapeutics, Inc., priority 2013, dated 2019).
Read-outs that look alike come from different tables or passages of the source.

Key:
[1] = target: FLNA pentapeptide of SEQ ID NO: 1 (Bn-VAKGL) (Homo sapiens, UniProt P21333); experiment: FITC-NLX-based FLNA screening assay (inhibition of FITC-naloxone binding to Bn-VAKGL on streptavidin plates); settings: 10 nM FITC-NLX
[2] = system: mu opiate receptor (MOR); experiment: MOR agonist activity using [35S]GTPγS binding assay in striatal membranes; format: biochemical; settings: for MOR agonist activity ([35S]GTPγS binding), FLNA-Binding Compound as Agonist 1 μM + BFNA: 1 μM compound + 1 μM β-funaltrexamine
Procedure, shortened: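 Striatal membranes (200 μg) were preincubated 5 min at 30 °C in HEPES pH 7.5 with 100 mM NaCl, 1 mM MgCl2 and 0.5 nM [35S]GTPγS, then 5 min more with 0.1–10 μM compound. Gαo was immunoprecipitated and bound radioactivity counted by scintillation.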

[3] = 0.1 μM compound relative to DAMGO
[4] = 1 μM compound + BFNA relative to DAMGO + BFNA
[5] = 1 μM compound relative to DAMGO
[6] = FLNA-binding compound 0.01 μM, read-out: Percent Binding Inhibition
[7] = FLNA-binding compound 0.1 μM, read-out: Percent Binding Inhibition
[8] = FLNA-binding compound 1 μM, read-out: Percent Binding Inhibition
[9] = read-out: Percent Binding Inhibition, FLNA-binding compound 0.01 μM
[10] = read-out: Percent Binding Inhibition, FLNA-binding compound 0.1 μM
[11] = read-out: Percent Binding Inhibition, FLNA-binding compound 1 μM

| SMILES | MOR agonist activity ([35S]GTPγS binding), FLNA-Binding Compound as Agonist 0.1 μM ([2]; 0.1 μM compound) [%] | % DAMGO (0.1 μM) [2, 3] [%] | MOR agonist activity ([35S]GTPγS binding), FLNA-Binding Compound as Agonist 1 μM ([2]; 1 μM compound) [%] | MOR agonist activity ([35S]GTPγS binding), FLNA-Binding Compound as Agonist 1 μM + BFNA [2] [%] | % DAMGO + BFNA [2, 4] [%] | % DAMGO (1 μM) [2, 5] [%] | inhibition at 0.01 µM [1, 6] [%] | inhibition at 0.1 µM [1, 7] [%] | inhibition at 1 µM [1, 8] [%] | further results |
| --- | --- | --- | --- | --- | --- | --- | --- | --- | --- | --- |
| COc1ccc(OCC(O)CN2CCc3cc4c(c(OC)c3C2)OCO4)cc1 (stereo not drawn) [Compound A0070] | 128.6 | 74.7 | 195.3 | 80.3 | 232.8 | 88.9 |  |  |  | Percent Binding Inhibition ([1]; FLNA-binding compound 0.01 μM): 32.9%; Percent Binding Inhibition ([1]; FLNA-binding compound 0.1 μM): 39.1%; Percent Binding Inhibition ([1]; FLNA-binding compound 1 μM): 41.7% |
| CC(=O)c1ccc(S(=O)(=O)N2CCC3(CC2)NC(=O)CO3)cc1 [Compound C0087M] |  |  |  |  |  |  | 51.6 | 57.9 | 61.5 | % DAMGO (0.1 μM) ([2]; Series C-2, 0.1 μM compound, relative to DAMGO): 138.9%; MOR agonist activity, percent [35S]GTPγS binding at the stated compound concentration ([2]; Series C-2, 0.1 μM compound, [35S]GTPγS binding to Gαo, striatal membranes): 262.8%; MOR agonist activity, percent [35S]GTPγS binding at the stated compound concentration ([2]; Series C-2, 1 μM compound + 1 μM β-FNA): 142.5%; % DAMGO + BFNA ([2]; Series C-2, 1 μM compound + β-FNA, relative to DAMGO + BFNA): 293.8%; % DAMGO (1 μM) ([2]; Series C-2, 1 μM compound, relative to DAMGO): 132.8%; MOR agonist activity, percent [35S]GTPγS binding at the stated compound concentration ([2]; Series C-2, 1 μM compound, [35S]GTPγS binding to Gαo, striatal membranes): 329.6% |
| CC(C)c1ccc(S(=O)(=O)N2CCC3(CC2)OCCN3S(=O)(=O)c2ccc(C(C)C)cc2)cc1 [Compound C0007] |  |  |  |  |  |  |  |  |  | inhibition at 0.01 µM [1, 9]: 40.5%; inhibition at 0.1 µM [1, 10]: 46.3%; inhibition at 1 µM [1, 11]: 48.9%; % DAMGO (0.1 μM) ([2]; Series C-1, 0.1 μM compound, relative to DAMGO): 46.0%; Concentration of FLNA-Binding Compound as Agonist 0.1 μM ([2]; Series C-1, 0.1 μM compound, [35S]GTPγS binding to Gαo, striatal membranes): 79.1%; Concentration of FLNA-Binding Compound as Agonist 1 μM + BFNA ([2]; Series C-1, 1 μM compound + 1 μM β-FNA): 10.9%; % DAMGO + BFNA ([2]; Series C-1, 1 μM compound + β-FNA, relative to DAMGO + BFNA): 17.0%; % DAMGO (1 μM) ([2]; Series C-1, 1 μM compound, relative to DAMGO): 70.5%; Concentration of FLNA-Binding Compound as Agonist 1 μM ([2]; Series C-1, 1 μM compound, [35S]GTPγS binding to Gαo, striatal membranes): 195.0% |
| COc1ccc(OCC(O)CN2CCCc3ccccc32)cc1 (stereo not drawn) [Compound A0067] | 170.8 | 99.2 | 254.4 | 33.9 | 98.3 | 115.8 |  |  |  | Percent Binding Inhibition ([1]; FLNA-binding compound 0.01 μM): 32.7%; Percent Binding Inhibition ([1]; FLNA-binding compound 0.1 μM): 39.1%; Percent Binding Inhibition ([1]; FLNA-binding compound 1 μM): 44.3% |
| CC1CCC(C(C)C)C(OCC(O)CN2CCN(C)CC2)C1 (stereo not drawn) [Compound A0009] | 70.2 | 39.8 | 126.4 | 93.9 | 142.9 | 48.7 | 26.4 | 37.8 | 38.9 |  |
| CC1CCC(C(C)C)C(OCC(O)CN2CCCCCCC2)C1 (stereo not drawn) [Compound A0014] | 147.0 | 83.2 | 174.9 | 140.8 | 214.3 | 67.5 | 33.8 | 39.7 | 44.7 |  |
| COc1ccc(OCC(O)Cn2ccc3ccccc32)cc1 (stereo not drawn) [Compound A0077] | 300.1 | 170.5 | 334.7 | 103.5 | 470.5 | 132.3 | 41.1 | 48.7 | 49.4 |  |
| COc1cccc(OC)c1CC(=O)CC1c2c(cc3c(c2OC)OCO3)CC[N+]1(C)C (stereo not drawn) [Compound B0036] |  |  |  |  |  |  |  |  |  | inhibition at 0.01 µM [1, 9]: 46.6%; inhibition at 0.1 µM [1, 10]: 52.8%; inhibition at 1 µM [1, 11]: 62.1%; % DAMGO (0.1 μM) ([2]; Series B, 0.1 μM compound, relative to DAMGO): 39.2%; MOR agonist activity, percent [35S]GTPγS binding at the stated compound concentration ([2]; Series B, 0.1 μM compound, [35S]GTPγS binding to Gαo, striatal membranes): 61.4%; MOR agonist activity, percent [35S]GTPγS binding at the stated compound concentration ([2]; Series B, 1 μM compound + 1 μM β-FNA): 65.1%; % DAMGO + BFNA ([2]; Series B, 1 μM compound + β-FNA, relative to DAMGO + BFNA): 199.7%; % DAMGO (1 μM) ([2]; Series B, 1 μM compound, relative to DAMGO): 52.1%; MOR agonist activity, percent [35S]GTPγS binding at the stated compound concentration ([2]; Series B, 1 μM compound, [35S]GTPγS binding to Gαo, striatal membranes): 120.6% |
